Measured values reported in PMC10377091 (Brain Sciences, 2023).
Read-outs that look alike come from different tables or passages of the source.

Legend:
[1] = system: hiPS-BCECs; experiment: Cytotoxicity, CellTiter-Glo 2.0 Cell Viability Assay; details: 1% SDS (positive control), 4 h incubation, luminescence; mean ± SEM
Protocol: Cytotoxicity of phoenixin-14 against hiPS-BCECs was evaluated for three concentrations (1, 10, and 100 nMol) after 4 h incubation with untreated (negative control) and 1% Sodium Dodecyl Sulfate (SDS, Carl Roth, Karlsruhe, Germany)-treated (positive control) hiPS-BCECs as controls. After treatment, a CellTiter-Glo® 2.0 Cell Viability Assay (Promega, Mannheim, Germany) was performed according to the manufacturer’s instructions. Luminescence was measured with an Infinite M200 fluorescence reader (Tecan Group, Männedorf, Switzerland).
Cytotoxicity studies were performed in triplicate and three independent biological replicates. Transport studies were performed in duplicate and repeated three times. […] When feasible based on the number of values, data were tested for normality using the Kolmogorov–Smirnov test; otherwise, they were assumed to be non-normally distributed. Results from the toxicity studies were analyzed using Kruskal–Wallis test and significance values were adjusted according to Bonferroni correction regarding multiple testing. To compare the results of the transport studies, an unpaired t-test was applied. Data are presented as mean ± SEM. The level of significance was defined as p < 0.05 (*).

[2] = system: hiPSC-BCECs (brain capillary-like endothelial cells derived from human induced-pluripotent stem cells); parameters: method as in PMID 28344002; details: control substances, previously published experiments in the hiPSC-based BBB model; mean ± SEM; cited from earlier work
[3] = parameters: method as in PMID 34575559; details: in vivo in mice; cited from earlier work
[4] = system: hiPSC-BCECs (brain capillary-like endothelial cells derived from human induced-pluripotent stem cells); experiment: Transport assay across hiPSC-derived BBB mono-culture model (hiPS-BCEC); type: in vitro ADME; details: for clearance value: mean ± SEM; for permeability coefficient (PC): apical to basolateral, 4 h, 37 °C, ELISA
Protocol: Human induced-pluripotent stem cells (hiPSC; IMR90-4, WiCell Research Institute, Madison, WI, USA) were cultured in mTeSRTM1 medium (StemCell Technologies, Vancouver, BC, Canada). The hiPSC-derived brain capillary-like endothelial cell (hiPS-BCEC) BBB model was built as previously described. In brief, using Accutase® solution (Sigma-Aldrich, Saint Louis, MO, USA), hiPSCs were dissociated into single cells and seeded in mTeSRTM1 medium (StemCell Technologies Inc.) including […]-27632 dihydrochloride (Tocris, Bristol, UK) on Matrigel® Growth Factor Reduced (GFR) Basement Membrane Matrix, Phenol Red-free (Corning, Corning, NY, USA) coated 6-well plates at a density of 7.5 × 103 hiPSC/cm^2. […] For the next two days, cells were treated with EC++ medium, consisting of human endothelial-[…], Thermo Fisher Scientific) supplemented with 200 × diluted serum-free B-27TM supplement (Thermo Fisher Scientific), 20 ng/mL hbFGF (PeproTech, Cranbury, NJ, USA), and 10 μM all-trans RA (Sigma-Aldrich). No medium change occurred on day 7. Using Accutase®, cells were seeded in EC++ medium at a density of 1 × 106 hiPSC/cm^2 onto 24-well ThinCert® cell culture inserts, with a pore size of 0.4 μm (Greiner BioOne, Frickenhausen, Germany), coated with 400 μg/mL collagen IV (Sigma-Aldrich) and supplemented with 100 μg/mL fibronectin (Thermo Fisher Scientific). Cells were cultured in EC++ medium for 24 h, followed by treatment with EC medium ([…] hbFGF and RA) for another 24 h, yielding purified hiPS-BCECs. Transport assays were performed in cell culture inserts (24-well format) on an orbital shaker (Edmund Buhler GmbH, Bodelshausen, Germany) at 100 rpm, 37 °C, 95% humidity, and 5% CO2. […] Stock solutions of commercially purchased phoenixin-14 (079-01, Phoenix Pharmaceuticals, Inc., Karlsruhe, Germany,) were diluted with EC medium to the desired concentrations (1 nMol or 10 nMol). In total, 200 μL of the final concentrations of phoenixin-14 were applied to the apical side of the BBB model. The basolateral side was supplied with 800 μL of EC medium. The transport was evaluated with a total incubation time of 4 h. Half-hourly, the basolateral medium was collected and replaced with fresh EC medium. As a control, the substances were incubated on empty collagen IV-/fibronectin-coated inserts to exclude major phoenixin-14 adsorption on the membrane. […] The concentration of phoenixin-14 in the apical and basolateral compartment was measured using a commercially purchased ELISA Kit (EK-079-01, Phoenix Pharmaceuticals). The intra-assay variability was 9.7%. The sensitivity for phoenixin was 0.07 ng/mL, while the linear detection ranged from 0.36 to 3.26 ng/mL (Phoenix Pharmaceuticals). […] Data are presented as mean ± SEM.

Molecule: CCCCCCCCCCCCOS(=O)(=O)[O-].[Na+] [SDS, Sodium Dodecyl Sulfate]
- cell viability in comparison to untreated hiPS-BCECs [1]: 0.37 ± 0.02%

Molecule: Cn1c(=O)c2c(ncn2C)n(C)c1=O [caffeine]
- permeability coefficient (PC) [2]: 51.06 ± 9.90 µm/min
- clearance value [3]: 1.111e-05 mL/min

Molecule: H-DVQPPGLKVWSDPF-NH2 [phoenixin-14]
- passage across the hiPSC-derived BBB model ([4]; 1 and 10 nMol, phoenixin-14 alone, in vitro): did not cross
- clearance value ([4]; 1 nMol phoenixin-14, hiPS-BCEC mono-culture, resulting from PC): 6.83e-07 ± 1.39e-07 mL/min
- permeability coefficient (PC) ([4]; 10 nMol phoenixin-14, hiPS-BCEC mono-culture, experiment 1 of 3): 0.059 µm/min
- permeability coefficient (PC) ([4]; 10 nMol phoenixin-14, hiPS-BCEC mono-culture, experiment 2 of 3): 0.056 µm/min
- permeability coefficient (PC) ([4]; 10 nMol phoenixin-14, hiPS-BCEC mono-culture, experiment 3 of 3): 0.019 µm/min
- clearance value ([4]; 10 nMol phoenixin-14, hiPS-BCEC mono-culture, based on PC): 1.779e-06 ± 8.17e-07 mL/min
